From patent US9062051B2, “Compounds and pharmaceutical compositions thereof for the treatment of proliferative disorders” (GALAPAGOS NV, priority 2014, dated 2015)
One block for each compound: values may come before it.

Key:
EphA2 = target: T1, EphA2 (UniProt Ref: P29317) (Homo sapiens, UniProt P29317); assay: EphA2 assay (Reaction Biology HotSpot radioactive kinase assay); format: biochemical; conditions: ATP 10 μM; read-out: EphA2 potency IC50
T1 construct: purchased Reaction Biology
Experimental: (§1) Inhibition of EphA2 (UniProt Ref: P29317) by a test compound is determined by a commercially available Reaction Biology proprietary nanoliter radioactive HotSpot^SM assay (Reaction Biology, One great valley parkway, Suite 2, Malvern Pa., 19355, USA). The principle of the assay consists of the measurement of incorporated ^33P into poly[Glu:Tyr] (4:1) (0.2 mg/mL) when the substrate is phosphorylated by the enzyme using [^33P]-γ-ATP and ATP (10 μM).
To determine the IC50, a serial dilution of compound is tested starting from 10, or 3 μM (highest dilution) with a 1/3 dilution.

EphB4 = target: T2, EphB4 (UniProt Ref: Q541P7) (Homo sapiens, UniProt P54760); assay: EphB4 assay (Reaction Biology HotSpot radioactive kinase assay); format: biochemical; conditions: ATP 10 μM; read-out: EphB4 potency IC50
T2 construct: purchased Reaction Biology
T2 sequence (P54760 16-987): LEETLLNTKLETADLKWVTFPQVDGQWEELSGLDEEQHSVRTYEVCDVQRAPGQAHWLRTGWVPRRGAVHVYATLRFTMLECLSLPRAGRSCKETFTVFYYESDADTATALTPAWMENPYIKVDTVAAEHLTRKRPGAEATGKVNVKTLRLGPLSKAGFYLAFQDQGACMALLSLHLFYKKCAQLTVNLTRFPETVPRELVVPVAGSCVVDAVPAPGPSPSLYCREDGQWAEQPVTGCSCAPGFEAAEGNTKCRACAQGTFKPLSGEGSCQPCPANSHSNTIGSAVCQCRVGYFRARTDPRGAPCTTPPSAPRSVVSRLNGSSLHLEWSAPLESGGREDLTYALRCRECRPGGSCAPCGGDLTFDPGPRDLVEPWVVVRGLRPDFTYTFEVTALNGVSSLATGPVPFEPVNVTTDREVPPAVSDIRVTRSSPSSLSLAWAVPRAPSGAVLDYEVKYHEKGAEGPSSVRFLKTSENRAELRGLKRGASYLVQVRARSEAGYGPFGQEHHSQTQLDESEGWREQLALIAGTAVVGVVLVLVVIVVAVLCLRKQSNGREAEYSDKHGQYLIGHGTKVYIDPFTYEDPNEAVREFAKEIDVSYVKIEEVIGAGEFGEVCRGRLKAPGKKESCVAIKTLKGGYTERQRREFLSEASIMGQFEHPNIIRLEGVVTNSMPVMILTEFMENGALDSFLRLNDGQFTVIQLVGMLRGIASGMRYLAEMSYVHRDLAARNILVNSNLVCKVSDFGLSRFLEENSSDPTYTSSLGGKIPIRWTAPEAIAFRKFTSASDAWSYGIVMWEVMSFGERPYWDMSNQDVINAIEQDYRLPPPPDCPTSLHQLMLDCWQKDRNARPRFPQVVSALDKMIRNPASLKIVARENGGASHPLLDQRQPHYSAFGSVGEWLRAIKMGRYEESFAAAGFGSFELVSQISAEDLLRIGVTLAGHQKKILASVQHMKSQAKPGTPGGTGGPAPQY
Experimental: as §1, with “EphB4” for “EphA2”, “Q541P7)” for “P29317)”
To determine the IC50, a serial dilution of compound is tested starting from 10 or 3 μM (highest dilution) with a 1/3 dilution.

Recombinant EphB2 = target: T3, Recombinant EphB2 (Homo sapiens, UniProt P29323); assay: EphB2 assay (33P incorporation into poly GT, filter plate); format: biochemical; conditions: read-out: EphB2 potency IC50
T3 construct: purchased Carna 08-129
T3 sequence (P29323 19-986 isoform P29323-2 limits assumed): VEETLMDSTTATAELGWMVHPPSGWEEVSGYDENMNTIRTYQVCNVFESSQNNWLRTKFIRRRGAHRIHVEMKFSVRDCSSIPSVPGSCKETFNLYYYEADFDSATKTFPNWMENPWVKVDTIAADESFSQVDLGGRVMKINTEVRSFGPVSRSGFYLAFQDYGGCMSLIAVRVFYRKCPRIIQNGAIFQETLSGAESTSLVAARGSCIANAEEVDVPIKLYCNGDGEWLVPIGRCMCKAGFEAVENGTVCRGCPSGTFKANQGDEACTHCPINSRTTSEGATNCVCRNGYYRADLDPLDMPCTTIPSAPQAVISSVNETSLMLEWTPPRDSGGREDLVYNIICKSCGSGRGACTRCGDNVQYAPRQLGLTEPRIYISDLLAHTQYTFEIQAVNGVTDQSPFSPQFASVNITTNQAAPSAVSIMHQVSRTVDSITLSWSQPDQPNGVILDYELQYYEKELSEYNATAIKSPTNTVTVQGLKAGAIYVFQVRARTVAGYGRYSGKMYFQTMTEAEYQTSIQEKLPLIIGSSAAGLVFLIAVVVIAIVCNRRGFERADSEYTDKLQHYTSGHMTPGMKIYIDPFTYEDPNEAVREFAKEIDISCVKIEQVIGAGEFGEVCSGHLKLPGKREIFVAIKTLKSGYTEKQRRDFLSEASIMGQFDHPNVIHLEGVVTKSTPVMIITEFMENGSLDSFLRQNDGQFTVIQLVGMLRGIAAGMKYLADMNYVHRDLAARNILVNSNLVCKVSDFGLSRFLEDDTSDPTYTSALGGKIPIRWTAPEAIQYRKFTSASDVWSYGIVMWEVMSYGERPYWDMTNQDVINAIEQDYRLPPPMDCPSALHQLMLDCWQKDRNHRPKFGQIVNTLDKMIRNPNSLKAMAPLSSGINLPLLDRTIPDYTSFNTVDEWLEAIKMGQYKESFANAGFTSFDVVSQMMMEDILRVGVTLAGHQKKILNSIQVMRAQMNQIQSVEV
Experimental: The principle of the assay consists of the measurement of incorporated ^33P into the substrate poly GT when phosphorylated by the enzyme EphB2 using [^33P]-γ-ATP and ATP. Unincorporated ^33P is removed by loading the samples on a filter plate (using a harvester, Perkin Elmer) and 6 subsequent washing steps. ^33P incorporated in polyGT is measured on a Topcount after addition of microscint to the filter plates (Perkin Elmer).
Recombinant EphB2 (Carna Cat#08-129, 0.6 ng per well) was incubated with 0.05 mg/mL Poly(Glu,Tyr)sodium salt (4:1), MW 20 000-50 000 (Sigma catalog number P0275) in kinase reaction buffer (10 mM MOPS pH 7.2, 5 mM DTT, 0.01% Triton-X100, 5 mM MnCl2, 0.5 mM Na3VO4, 5 mM beta-glycerolphosphate), 0.5 μM non-radioactive ATP, 0.25 μCi/25 μl ^33P-gamma-ATP (Perkin Elmer, catalog number NEG602K) final concentrations with or without 5 μL containing test compound or vehicle (DMSO, 1% final concentration), in a total volume of 25 μL, in a polypropylene 96-well plate (Greiner, V-bottom). After 45 min at 30° C., reactions were stopped by adding of 25 μL/well of 150 mM phosphoric acid. The experiment was then conducted as described for EphA7. The ability of a test compound to inhibit the kinase activity was determined using counts per minutes (cpm) measured by the Topcount as:
Cpm (cpd): cpm determined for sample with test compound present
Cpm (control): cpm determined for sample with positive control inhibitor (10 μM staurosporine)
Cpm (vehicle): cpm determined in the presence of vehicle (1% DMSO)
Dose dilution series were prepared for the compounds enabling the testing of dose-response effects in the EphB2 assay and the calculation of the IC50 for each compound. Each compound was routinely tested at concentration of 20 μM followed by a 1/5 serial dilution, 10 points in a final concentration of 1% DMSO. When potency of compound series increased, more dilutions may be prepared and/or the top concentration may be lowered (e.g. 5 μM, 1 μM).

[1] = Pharmacokinetics in rats (exposure, AUC); format: in vivo, male Sprague Dawley rats; conditions: male, Sprague Dawley, rat, plasma, po, 5 mg/kg
Experimental: This study is performed with 6 naïve male Sprague Dawley rats (180-200 g, 6-8 weeks old). Rats are obtained from Janvier, Le Genest St Isle, France.
A controlled environment is maintained in the room with optimal conditions of approximately 15 air changes per hour, a temperature of 22±2 C, a relative humidity of 30-70% and a 12 hour light/dark cycle
Pelleted diet for rodents (UAR A04C-10) is used and is provided ad libitum. Before p.o. dosing, the animals are deprived of food for at least 12 hours before compound administration and 4 hours after administration. All animals had free access to tap water.
Two days before the dosing day, the implantation of a catheter in the jugular vein is done under gaseous anaesthesia with isoflurane.
Rats are dosed intravenously with test compound via a bolus in the tail vein with a dose level of 1 mg/kg. […]
The i.v. bolus and the oral administration are given a dose volume of 5 mL/kg.
From all animals approximately 200 μL blood samples are collected via the catheter and placed into tubes containing Li-heparin as anticoagulant. Blood samples are collected at the various time points (i.v.: 0.05, 0.25, 0.5, 1, 3, 5, 8 and 24 hours after dosing; p.o.: 0.25, 0.5, 1, 3, 5, 8 and 24 hours after dosing).
Blood is kept on ice. Within 1 hour after sampling, blood is centrifuged at 5,000 rpm for 10 min at 4° C. Immediately after centrifugation, the resulting plasma samples are collected into polypropylene tubes and are kept frozen at −20° C. pending bioanalysis.
Plasma samples are assayed by LC-MS/MS. Plasma proteins are precipitated with an excess of methanol containing the internal standard and the corresponding supernatant is injected on a C18 column. Analytes are eluted out the HPLC system by increasing the percentage of the organic mobile phase. An API4000 mass spectrometer (AB Sciex™) is used for the detection and quantification.
Pharmacokinetic parameters are calculated by non-compartmental analysis using WinNonlin® software (Pharsight, version 5.2).

MDA-MB-231 cells = assay: Mouse xenograft model of human triple negative breast cancer (MDA-MB-231), tumorous growth inhibition; format: in vivo, Female BALB/c Mice; conditions: day 26, 20 mg/kg, ip, 3x/ week
Experimental: Animals (Female BALB/c Mice, Harlan, 51930, 18-20 g) are provided with filtered tap water and standard chow ad libitum and maintained at 22±2° C. in 55±10% humidity on a 12 h light/dark cycle.
Paclitaxel used as a positive control is formulated by 1/3 dilution of commercial solution (Fresenius kabi, 871WF014/4) in saline.
The test compounds for po administration are formulated in 0.5% methylcellulose (VWR, ref AX021233).
MDA-MB-231 cell line is obtained from the ATCC collection (ref HTB-26). The cells are then cultured in RPMI 1640 medium supplemented with […] (Gibco 15140-148) and 1% (v/v) L-Glutamine 200 mM (Gibco 25030-024) at 37° C. in a 5% CO2 incubator.
5 million MDA-MB-231 cells/mice in 0.1 mL of 50% Matrigel (BD biosciences, LDEV free 256235)+50% D-PBS 1× (Gibco 14190-086) are injected by subcutaneous route on the upper back of 120 mice. Prior to implantation, mice are anesthetized by intra-peritoneal injection with a 0.1 mL/10 g dose of anaesthetic solution (18 mL NaCl, 0.9%+0.5 mL xylazine, +1.5 mL ketamine. […]
Body weight, and tumor growth is recorded twice a week during the course of treatment.
After 26 days the treatment is stopped, in each group half of the mice are euthanized for tissue collection, and the other half is kept for a further 7 days, during which period body weight and tumour sized are measured.
In sacrificed mice, blood and tumours are collected, analysed, and the effect of the test compounds is compared with controls (vehicle and paclitaxel).
The values were obtained using the following calculations
Relative Tumor Volume (RTV):
Tumor Growth Inhibition (TGI) TGI=1−T/C

T1 sequence (P29317 24-976): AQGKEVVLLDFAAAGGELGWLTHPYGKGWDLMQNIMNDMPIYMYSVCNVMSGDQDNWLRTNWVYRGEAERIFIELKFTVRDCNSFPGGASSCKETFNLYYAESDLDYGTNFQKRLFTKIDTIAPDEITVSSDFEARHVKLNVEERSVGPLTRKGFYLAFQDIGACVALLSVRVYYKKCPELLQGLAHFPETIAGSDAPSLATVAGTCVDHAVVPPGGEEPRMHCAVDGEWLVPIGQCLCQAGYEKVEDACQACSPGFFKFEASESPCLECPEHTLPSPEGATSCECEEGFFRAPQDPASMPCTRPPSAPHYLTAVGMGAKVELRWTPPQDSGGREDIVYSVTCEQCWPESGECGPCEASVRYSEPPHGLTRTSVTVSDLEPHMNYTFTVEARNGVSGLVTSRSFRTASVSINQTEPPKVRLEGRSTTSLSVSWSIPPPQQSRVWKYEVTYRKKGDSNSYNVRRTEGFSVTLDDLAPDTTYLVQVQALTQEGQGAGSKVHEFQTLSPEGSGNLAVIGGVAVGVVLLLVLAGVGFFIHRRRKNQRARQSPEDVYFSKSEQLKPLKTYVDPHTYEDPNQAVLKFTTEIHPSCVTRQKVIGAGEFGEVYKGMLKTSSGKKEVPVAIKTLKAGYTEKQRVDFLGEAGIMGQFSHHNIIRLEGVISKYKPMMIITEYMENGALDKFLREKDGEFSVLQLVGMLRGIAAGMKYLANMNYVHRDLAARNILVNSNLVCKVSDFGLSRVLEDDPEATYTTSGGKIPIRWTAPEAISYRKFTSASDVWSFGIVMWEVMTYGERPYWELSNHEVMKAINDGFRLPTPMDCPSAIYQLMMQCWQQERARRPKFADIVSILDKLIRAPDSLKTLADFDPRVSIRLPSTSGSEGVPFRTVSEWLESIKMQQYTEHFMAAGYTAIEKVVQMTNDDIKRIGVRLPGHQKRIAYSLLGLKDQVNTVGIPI

IC50 (EphA2): 25 to 50 nM
IC50 (EphB4): 0.01 to 25 nM
IC50 (Recombinant EphB2): 0.01 to 25 nM
SMILES: Cc1cc(C)cc(C(=O)Nc2ccc(C)c(-c3ccc4c(C(O)CN5CCOCC5)n[nH]c4n3)c2)c1 (stereo not drawn) [Compound 7, N-{3-[3-(1-Hydroxy-2-morpholin-4-yl-ethyl)-1H-pyrazolo[3,4-b]pyridin-6-yl]-4-methyl-phenyl}-3,5-dimethyl-benzamide]

AUC [1]: 2000 ng·h/mL
SMILES: CCc1n[nH]c2nc(-c3cc(NC(=O)c4cc(OC)cc(OC)c4)ccc3C)ccc12 [Compound 8, N-[3-(3-Ethyl-1H-pyrazolo[3,4-b]pyridin-6-yl)-4-methyl-phenyl]-3,5-dimethoxy-benzamide]

IC50 (EphA2): 0.01 to 25 nM
AUC [1]: 274 ng·h/mL
SMILES: COc1cc(OC)cc(C(=O)Nc2ccc(C)c(-c3ccc4c(CO)n[nH]c4n3)c2)c1 [Compound 10, N-[3-(3-Hydroxymethyl-1H-pyrazolo[3,4-b]pyridin-6-yl)-4-methyl-phenyl]-3,5-dimethoxy-benzamide]

SMILES: CC(=O)O[C@H]1C(=O)[C@@]2(C)[C@H]([C@H](OC(=O)c3ccccc3)[C@]3(O)C[C@H](OC(=O)[C@H](O)[C@@H](NC(=O)c4ccccc4)c4ccccc4)C(C)=C1C3(C)C)[C@]1(OC(C)=O)CO[C@@H]1C[C@@H]2O [Paclitaxel, paclitaxel]
RTV (Relative Tumor Volume) (MDA-MB-231 cells): 2.06
T/C (Tumour Vs Control) (MDA-MB-231 cells): 24.31%
TGI (Tumor Growth Inhibition) (MDA-MB-231 cells): 75.69%
